Test [1] has as its system T1, Y50Bg4.
T1 construct: expressed in E. coli DH5alpha, Ni-NTA purified; primers encode MKIDGGLKC... at N-end and ...EIIKKYKE at C-end
The test can be described thus: p-nitrophenol release at […] nm, Michaelis-Menten non-linear fit. Particulars: sodium citrate buffer pH 6.0, 60°C; 0-2 mM substrate. The format is biochemical, uncultured bacterium.

Test [2] deals with T1, Y50Bg4. The test is described as follows: glucose oxidase-peroxidase assay, Michaelis-Menten non-linear fit. It counts as biochemical, uncultured bacterium. The settings on record: sodium citrate buffer pH 6.0, 60°C; 0-20 mg/mL substrate. The source says: glucose oxidase-peroxidase assay, Michaelis-Menten non-linear fit on Y50Bg4

A word on the Km: it is the substrate concentration at which the rate is half of its maximum.

For the molecule `O=[N+]([O-])c1ccc(O[C@@H]2O[C@H](CO)[C@@H](O)[C@H](O)[C@H]2O)cc1` [p-nitrophenyl-β-D-glucopyranoside], the Km in the test with Y50Bg4 [1] was determined as 530 µM.

In the case of `OC[C@H]1O[C@@H](O[C@H]2[C@H](O)[C@@H](O)C(O)O[C@@H]2CO)[C@H](O)[C@@H](O)[C@@H]1O` (some centres unmarked) [cellobiose], in the test with Y50Bg4 [2], the Km came to 4.69 mg/mL.

The values are drawn from publication PMC12023779, “Characterization, thermostable mechanism, and molecular docking of a novel glucose-tolerant β-glucosidase/β-galactosidase from the GH1 family isolated from Rehai hot spring” (Frontiers in Microbiology, 2025).
